target: benzodiazepine receptor; assay: benzodiazepine receptor affinity, [^3 H] flunitrazepam radio receptor binding (modified Squires and Braestrup) on rat forebrain membrane preparations; conditions: 0.6 nM [^3 H] flunitrazepam, read-out: IC50, inhibition of the specific binding of [^3 H] flunitrazepam by 50%
Method: A. The affinity of the compounds for the benzodiazepine receptor was assessed using the radioligand [^3 H] flunitrazepam and modifications of the original radio receptor binding method of Squires and Braestrup (Nature, 1977, Vol. 266, p. 732). The values of Table V are nanomolar concentrations of test compound which inhibited the specific binding of 0.6 nM[^3 H] flunitrazepam to rat forebrain membrane preparations by 50% (IC50 nM).

Point of comparison: `CCc1ccc(C(=O)c2cn3c(cc(OC)c4cc(CC)ccc43)n2)cc1` [Example 29], IC50 51 nM. Against it:
- CCc1ccc2c(c1)c(OC)cc1nc(C(=O)c3ccccc3)cn12 [Example 1] — 3.6-fold lower, 14 nM
- CSc1cc2nc(C(=O)c3ccccc3)cn2c2ccccc12 [Example 2, (5-methylthio-imidazo[1,2-a]quinolin-2-yl)-phenyl-methanone] — 9.8-fold higher, 500 nM
- COc1ccc2c(OC)cc3nc(C(=O)c4ccccc4)cn3c2c1 [Example 3] — 98-fold higher, 5000 nM
- COc1cc2nc(C(=O)c3ccccc3)cn2c2ccccc12 [Example 4, (5-methoxy-imidazo[1,2-a]quinolin-2-yl)-phenyl-methanone] — 1.9-fold lower, 27 nM
- CCc1ccc2c(c1)c(OC)cc1nc(C(C)=O)cn12 [Example 6] — 25-fold higher, 1300 nM
- COc1cc2nc(C(=O)c3ccccc3)cn2c2ccc(Cl)cc12 [Example 7] — 12-fold higher, 600 nM
- CC(C)Oc1cc2nc(C(=O)c3ccccc3)cn2c2ccccc12 [Example 8, (5-isopropoxy-imidazo[1,2-a]quinolin-2-yl)-phenyl-methanone] — 9.2-fold higher, 470 nM
- CCOc1cc2nc(C(=O)c3ccccc3)cn2c2ccccc12 [Example 9] — 11-fold higher, 540 nM
- CCCCOc1cc2nc(C(=O)c3ccccc3)cn2c2ccccc12 [Example 10] — 20-fold higher, 1000 nM
- CCc1ccc(C(=O)c2cn3c(cc(OC)c4ccccc43)n2)cc1 [Example 11, (4-ethyl-phenyl)(5-methoxy-imidazo[1,2-a]quinolin-2-yl)-methanone] — within 1.5-fold, 67 nM
- CCCOc1cc2nc(C(=O)c3ccccc3)cn2c2ccccc12 [Example 12] — 20-fold higher, 1000 nM
- COc1cc2nc(C(=O)c3ccccc3)cn2c2ccc(C)cc12 [Example 13] — 2.4-fold lower, 21 nM
- COc1ccc2c(c1)c(OC)cc1nc(C(=O)c3ccccc3)cn12 [Example 14] — the same, 51 nM
- COc1cc2nc(C(=O)c3ccccc3)cn2c2ccc(C(C)C)cc12 [Example 15] — 2-fold lower, 25 nM
- CCCCc1ccc2c(c1)c(OC)cc1nc(C(=O)c3ccccc3)cn12 [Example 16] — within 1.5-fold, 57 nM
- COc1cc2nc(C(=O)c3ccc(C)cc3)cn2c2ccccc12 [Example 17] — 2.7-fold lower, 19 nM
- COc1ccc(C(=O)c2cn3c(cc(OC)c4ccccc43)n2)cc1 [Example 18] — within 1.5-fold, 37 nM
- COc1cc2nc(C(=O)c3ccccc3)cn2c2c(OC)cccc12 [Example 19] — 12-fold higher, 630 nM
- COc1cc2nc(C(=O)c3ccc(Cl)cc3)cn2c2ccccc12 [Example 20] — 1.9-fold higher, 96 nM
- COc1cc2nc(C(=O)c3cccs3)cn2c2ccccc12 [Example 21] — 2.1-fold lower, 24 nM
- COc1cc2nc(C(=O)c3ccccc3)cn2c2cc(Cl)ccc12 [Example 22] — 6.7-fold higher, 340 nM
- COc1cc2nc(C(=O)c3ccccc3)cn2c2c(Cl)cccc12 [Example 23] — 2.6-fold higher, 132 nM
- COc1cc2nc(C(=O)c3ccccc3)cn2c2cc(C)ccc12 [Example 24] — 5.7-fold higher, 290 nM
- COc1cc2nc(C(=O)c3ccccc3)cn2c2cccc(C)c12 [Example 25] — 4.6-fold lower, 11 nM
- COc1cc2nc(C(=O)c3ccccc3)cn2c2ccc(C3CCCCC3)cc12 [Example 26] — 200-fold higher, 10000 nM
- COc1cc2nc(C(=O)c3ccccc3)cn2c2ccc(Oc3ccccc3)cc12 [Example 27] — 4.1-fold higher, 210 nM
- CCc1ccc2c(c1)c(OC)cc1nc(C(=O)c3ccc(OC)cc3)cn12 [Example 28] — 1.7-fold lower, 30 nM
- CCc1ccc2c(c1)c(OC)cc1nc(C(=O)c3ccccn3)cn12 [Example 30] — 1.8-fold higher, 92 nM
- COc1cc2nc(C(=O)c3ccccc3)cn2c2ccc(F)cc12 [Example 31] — within 1.5-fold, 74 nM

tested on: not listed separately; assay: anxiolytic activity, one-day lick shock method of Vogel et al; assay type: in vivo; conditions: po, 24 h, orally, read-out: minimum effective dose (MED) at which there was an observed increase in shocks above control
Method: B. Screening for anxiolytic activity was carried out by the one-day lick shock method of Vogel et al [Psychopharmacologia, 1971 Vol. 21, p. 1]. The values of Table VI are the minimum effective doses (MED) in mg/kg orally at which there was an observed increase in shocks above control.

Point of comparison: `COc1cc2nc(C(=O)c3ccccc3)cn2c2ccccc12` [Example 4, (5-methoxy-imidazo[1,2-a]quinolin-2-yl)-phenyl-methanone], minimal effective dose 25 mg/kg. Against it:
- CCc1ccc2c(c1)c(OC)cc1nc(C(=O)c3ccccc3)cn12 [Example 1] — within 1.5-fold, 20 mg/kg
- CCc1ccc2c(c1)c(OC)cc1nc(C(C)=O)cn12 [Example 6] — within 1.5-fold, 20 mg/kg
- COc1cc2nc(C(=O)c3ccccc3)cn2c2ccc(C)cc12 [Example 13] — the same, 25 mg/kg
- COc1cc2nc(C(=O)c3ccccc3)cn2c2ccc(C(C)C)cc12 [Example 15] — 2.5-fold lower, 10 mg/kg
- CCCCc1ccc2c(c1)c(OC)cc1nc(C(=O)c3ccccc3)cn12 [Example 16] — the same, 25 mg/kg

From patent US4387098A, “Imidazo[1,2-a]quinoline derivatives useful as anxiolytics” (Roussel Uclaf, priority 1981, dated 1983)
